Measurements as given in patent US20070269892A1, “FORMULATIONS FOR INTRACELLULAR DELIVERY dsRNA” (NASTECH PHARMACEUTICAL COMPANY INC., priority 2006, published 2007).
PEG10k = poly(ethylene glycol) of 10 kD conjugated to the peptide; PEG2k = PEG 2k (PEG2k-maleimide); Mal = maleimide

How the values were obtained:
[1] = Particle size analysis of siRNA/peptide polymer formulations; type: physicochemical; settings: 24 hours after formulation, siRNA 0.8 μM/peptide polymers, N/P=2
Experimental: Formulations for particle size analysis were prepared in Hepes 11 mM pH7.4, at a siRNA concentration of 0.8 uM (11.59 μg/ml) and then diluted into OPTI-MEM. For nanoparticle size analysis of siRNA/peptide polymers, we used 1 ug RNA/0.8 nmols peptide polymer (based on monomer). The total vol of sample was 1 ml containing 50 ug RNA and 40 nmol peptide polymer in Hepes buffer mannitol (5 mM HEPES, 5% mannitol, pH 7.5) (Filter). The particle size analysis was performed on a Zeta Plus/Zeta potential analyzer.
Briefly, buffer was added first and then concentrated siRNA was added followed by votexing for 3 seconds (at full speed). The peptide polymer was then added followed by votexing for an additional 6 seconds (at full speed). Formulations were maintained at room temperature for 10 minutes. In a 96-well plate format, formulations were then diluted 20× for a final siRNA concentration of 10 nM (6.25 μl into 118.75 μl of OPTI-MEM) or 2× for a final concentration of 100 nM (62.5 μl of formulation into 62.5 μl OPTI-MEM). After dilution, formulations were mixed gently. For positive control preparation, 0.5 μl of HiPerFect was diluted into 12.5 μl of OPTI-MEM and 0.5 μl of siRNA into 12.5 μl of OPTI-MEM, respectively; and incubated at room temperature for 5 minutes, and then combined diluted siRNA and diluted HiPerFect, and incubated at room temperature for 15 minutes. A formulation pH of about 7.4 was chosen in order to minimize reduction of peptide that is polymerized through cycteine disulfide bonds.
Particle size was measured 24 hours after formulation of siRNA 0.8 μM/peptide polymers (N/P=2). […] In summary, all formulation tested in this study formed particles at about or less than about 100 nm.

9L/LacZ cells [2] = assay: Cellular uptake of peptide/siRNA condensates (fluorescence intensity); type: cell-based; settings: study 2; NT peptides at 100 nM, N/P=2 with pluronic F127; PN0593/PN0594 at varying N/P
Experimental: Cells are plated per well in 24-well plates the day before transfection in complete media. The siRNA is labeled, for example with Cy-5 conjugate. The peptide/siRNA condensates are added to cells previously washed with phosphate buffered saline (PBS). Cells were transfected for three hours at 37° C., 5% CO2. Cells were washed with PBS, treated with trypsin, and then analyzed by flow cytometry.
siRNA cell-uptake was measured by the intensity of intracellular Cy5 fluorescence. The cell-uptake assay is used to determine the percentage of cells that contain the Cy5-conjugated siRNA. Mean Fluorescence Intensity (MFI) is used to determine the relative mean quantity of Cy5-conjugated siRNA that entered the cells.

9L/LacZ cells [3] = assay: Micro BCA total protein assay (toxicity); type: cell-based; settings: study 1, 100 nM, N/P=2
Experimental: For study 1 and 2, 7,000-10,000 9L/LacZ cells (passage 5-25) were plated in cell culture media in each well of a 96-well plate and grown overnight. Cells (in 75 μl of media) were transfected by adding 25 μl of each formulation to be tested; 4 hours thereafter 100 μl of fresh media is added to each well, which media is replaced with 100 μl of fresh media approximately 16 hours later. […] Cells were harvested 3 days after transfection by the addition of 50 μl of lysis buffer for β-galactosidase and Micro BCA assays.
For study 1 and 2, a Micro BCA assay (Pierce Chemical Company, Rockford, Ill.) was performed in order to measure total protein concentration, as follows: 9L/LacZ cells were washed 1× with phosphate buffered saline (PBS). Then, 50 μl of M-PER® Reagent was added to each well and incubated for 15 minutes at room temperature. After incubation, 10 μl of each lysate was transferred to a new well (using a 96-well plate format) containing 140 μl of dH20, and then 150 μl of Micro BCA working solution was added. The plates were covered, incubated at 37° C. for 2 hours and then the absorbance measured at 562 nm was recorded.

Lac-Z = settings: study 2, 100 nM, N/P=2, 0.1% pluronic F127
Experimental: The LacZ assay was performed three days post-transfection. Cells were rinsed with phosphate buffers saline (PBS) after removal of cell media. The PBS was aspirated and the cells were lysed by the addition of 50 μl M-PER™ to each well and incubating the cells for 15 minutes while gently shaking. Following cell lysis, 10 μl of cell lysate was removed from each well to perform a total protein assay (micro BCA kit, Pierce). In order to measure LacZ activity, 30 μl of cell lysate was transferred to a new plate and 30 μl of ALL-IN-ONE™ beta-galactosidase (β-gal) was added to each well of the new plate. The new plate was covered to avoid light exposure and incubated for 30 minutes at 37° C. Following the 30 minute incubation, the absorbance was read at 405 nm with a μQuant plate reader (Bio-Trek Instrument) to measure LacZ activity.
For study 1 and 2, 7,000-10,000 9L/LacZ cells (passage 5-25) were plated in cell culture media in each well of a 96-well plate and grown overnight. […]
For study 1 and 2, a Micro BCA assay (Pierce Chemical Company, Rockford, Ill.) was performed in order to measure total protein concentration, as follows: 9L/LacZ cells were washed 1× with phosphate buffered saline (PBS). […] The plates were covered, incubated at 37° C. for 2 hours and then the absorbance measured at 562 nm was recorded. […]

[4] = Glutathione (GSH) mediated siRNA release from disulfide cross-linked peptide siRNA particles; type: physicochemical; settings: 5 ug siRNA/4 nmols peptide polymer, GSH 0.5 mg
Experimental: In a separate experiment, glutathione (GSH) was added to disulfide cross-linked peptide siRNA particles (which may be referred to as nanoparticles) in order to detect siRNA release from disulfide cross-linked peptide siRNA condensates. The reduction of the peptide polymers, leading to dissociation and release of siRNA was monitored by continues measurement of the fluorescence intensity of […] over 15 minutes. Briefly, siRNA nanoparticles (N/P: 5 ug siRNA/4 nmols peptide polymer) were treated with reducing agent glutathione (GSH, 0.5 mg scale) and thiazole orange (0.1 ug) in 1 ml sample in HBM buffer pH 7.5. The fluorescence intensity was monitored over 15 min at Ex 498 nm and Emi 546 nm. Samples tested were (1) siRNA and Thiazole orange (No peptide polymer, No GSH), (2) Peptide polymer, siRNA and Thiazole orange (No GSH), and (3) Peptide polymer, siRNA, Thiazole orange and GSH.

G1498 siRNA = assay: SYBR-gold dye displacement assay of peptide binding to siRNA, with Scatchard analysis; settings: for Bmax (Scatchard Analysis) / Kd (Scatchard Analysis) / Max Bound siRNA: siRNA 10 μg/mL; for Max Bound siRNA: peptide:siRNA charge ratio 0.05 to 10; for Relative affinity of binding to siRNA: comparison within Table 7
Experimental: Peptides (see Table 4, Example 2) are suspended in Hyclone nuclease free water. Test dilutions of this peptide stock are made in sterile, Nuclease-free eppendorf tubes at a 2× final concentration and buffered to pH 7.4 with 20 mM Phosphate. Nine concentrations of each peptide were made, corresponding to charge ratios of approximately 0.05 to 10. The molar ratios and μg/mL and μM concentrations of each peptide corresponding to these charge ratios are detailed in Tables 1, 2 and 3.
SYBR-gold nucleic acid binding dye stock, a 10,000× concentrate, is supplied by Invitrogen (Carlsbad, Calif.) and stored at −20° C. The concentrate is allowed to equilibrate to room temperature before diluting 1 to 100 in Hyclone nuclease free water. This is then diluted 1 to 10 in the experimental plate for a final concentrate of 10× for the assay. This is the optimal dilution to achieve linear binding to siRNA duplex at a concentration range of up to 50 μg/mL concentration. For higher concentrations, the amount of dye to use may be further optimized.
Samples are mixed directly in the 384 well analysis plate. First 5 μL SYBR-gold dye is pipetted into each well with a multichannel pipette, touching the tip to the bottom of the well to draw out the solution completely. Then 22.5 μL of 2× peptide solution is added with a single channel pipette. Since SYBR-gold will not bind to peptide (and peptide samples without siRNA will verify this assumption), there will be no bleaching effect on fluorescence. Finally, 22.5 μL of 2× siRNA is added with a multichannel pipette. The plate is covered immediately with foil and tapped gently to mix and draw down any droplets on the side of the well.
Fluorescence is measured using the SpectraMax fluorescent plate reader from Molecular Devices (Sunnyvale, Calif.). Plate settings include shaking before reading, one read per well, with excitation wavelength of 495 nm and emission wavelength of 537 nm. The plate is read within 30 minutes of the addition of the siRNA.
Scatchard Plot is a plot of peptide binding ([peptide]bound/[peptide]free) vs. [peptide]bound. The slope of the linear regression of this plot is −1/Kd and Bmax is the […]. Since the concentration of free and bound peptide cannot be measured directly, indirect measurements of siRNA is used for the calculation. Free siRNA is determined from measured fluorescence using the standard curve. Bound siRNA is determined from the standard curve by mass balance from the known initial siRNA concentration (10 μg/mL). Bound peptide is calculated from bound siRNA by assuming the (siRNA:Peptide) bound molar ratio is equal to the (siRNA:Peptide) charge ratio for a single molecule pairing. From this calculated bound peptide amount, the free peptide is calculated by mass balance.
The relative binding of various peptides to siRNA via a rapid screen is assessed by indirect measurement of the displacement of SYBR-gold nucleic acid binding dye. A buffered mixture of siRNA, peptide and SYBR-gold is prepared in the measurement plate in duplicate such that the peptide and SYBR-gold dye undergoes simultaneous competitive binding of the siRNA. The concentration of siRNA is fixed at 10 μg/mL and is combined with a titration of each peptide ranging in a concentration that corresponds to a peptide:siRNA charge ratio between 0.05 to 10. Since SYBR-gold dye only fluoresces when bound to siRNA, peptide binding to the siRNA is inhibits binding of the dye and consequently reduces the fluorescence. Therefore, the amount of fluorescence correlates inversely to the binding of the peptide to the siRNA.

Row | Substance | Particle size [1] | Uptake (9L/LacZ cells [2]) | Bmax (Scatchard Analysis) (G1498 siRNA) [μMbound/μMfree] | Kd (Scatchard Analysis) (G1498 siRNA) [µM⁻¹] | Max Bound siRNA (G1498 siRNA) [% mole %] | other results
1 | Cys-Trp-(Lys)4-Cys (CWKKKKC) [NT-18] | about 105 nm | good uptake | – | – | – | Toxicity (total protein expression) (9L/LacZ cells [3]): no apparent toxicity; Knockdown of gene expression (Lac-Z): about 20%
2 | Cys-Trp-(Lys)4-Cys-(Lys)4-Cys (CWKKKKCKKKKC) [NT-22] | about 90.8 nm | – | – | – | – | –
3 | Cys-Trp-(Lys)4-His-(Lys)4-Cys (CWKKKKHKKKKC) [NT-23] | about 65.7 nm | – | – | – | – | –
4 | Cys-Trp-(Lys)6-Cys (CWKKKKKKC) [NT-19] | about 78.7 nm | good uptake | – | – | – | Toxicity (total protein expression) (9L/LacZ cells [3]): no apparent toxicity; Knockdown of gene expression (Lac-Z): about 27%
5 | Cys-Trp-(Lys)8-Cys (CWKKKKKKKKC) [NT-20] | about 67.6 nm | good uptake | – | – | – | –
6 | Cys-Trp-(Lys)10-Cys (CWKKKKKKKKKKC) [NT-21] | about 55.7 nm | good uptake | – | – | – | Reduction of peptide polymer by GSH with siRNA release [4]: exception
7 | Cys-Trp-His-(Lys)4-His-(Lys)4-Cys (CWHKKKKHKKKKC) [NT-24] | about 82.2 nm | – | – | – | – | Toxicity (total protein expression) (9L/LacZ cells [3]): no apparent toxicity
8 | Cys-Trp-His-(Lys)4-His-(Lys)4-His-Cys (CWHKKKKHKKKKHC) [NT-25] | about 64.6 nm | – | – | – | – | –
9 | KKKKKKKKK [PN0860-2, Ac-(Lys)9-amide] | – | – | 0.379 | 0.204 | 43 | –
10 | KKKKKKKKKKKKKKKKKK [PN0858-1, Ac-(Lys)18-amide] | – | – | 0.828 | 0.348 | 66 | –
11 | KKKKKKKKKKKKKKKKKKKK [PN0924-1, NH2-(Lys)20-amide] | – | – | 0.883 | 0.426 | 71 | –
12 | NH2-PLKPLKPLKPLKPLKPLK-amide (H-PLKPLKPLKPLKPLKPLK-NH2) [PN0594] | – | very low | – | – | – | –
13 | NH2-VRLPPPVRLPPPVRLPPP-amide (H-VRLPPPVRLPPPVRLPPP-NH2) [PN0593] | – | very low | – | – | – | –
14 | PEG2k-Mal-(Lys)10-amide ({PEG2k-Mal}-KKKKKKKKKK-NH2) [PN0933-2] | – | – | 0.241 | 0.326 | 39 | –
15 | PEG2k-Mal-(Lys)15-amide ({PEG2k-Mal}-KKKKKKKKKKKKKKK-NH2) [PN0930-2] | – | – | 0.560 | 0.250 | 48 | –
16 | PEG2k-Mal-(Lys)25-amide [PN0925-2] | – | – | 2.077 | 0.150 | 59 | –
17 | PEG10k-Mal-(Lys)15-amide ({PEG10k-Mal}-KKKKKKKKKKKKKKK-NH2) [PN0931-2] | – | – | 0.992 | 0.130 | 47 | –
18 | PEG10k-Mal-(Lys)30-amide [PN0907-2] | – | – | – | – | 58 | –
19 | RRRRRRRRR [PN0861-2, Ac-(Arg)9-amide] | – | – | 0.198 | 0.771 | 68 | Relative affinity of binding to siRNA (G1498 siRNA): greatest affinity
20 | RRRRRRRRRRRRRRRRRR [PN0859-2, Ac-(Arg)18-amide] | – | – | 0.495 | 0.929 | 64 | Relative affinity of binding to siRNA (G1498 siRNA): greatest affinity
